Columns and labels:
[1] = tested on: P. falciparum (3D7 strain); test: In vitro antiplasmodial activity, P. falciparum blood-stage parasites, SYBR Green I; type: cell-based, Plasmodium falciparum; conditions: Plasmodium falciparum, 3D7, 3D7 strain, Table 2 strain panel; read-out: IC50
Procedure: The P. falciparum strains were cultivated in human blood cells (hRBC) O^+, while P. knowlesi was cultivated in rhesus red blood cells (rRBC) as described. P. falciparum complete RPMI (consisting of RPMI-1640, supplemented with 0.2% NaHCO3, 25 mM HEPES (pH 7.4), 11 mM D-glucose, 10 mg/L hypoxanthine, 25 mg/L gentamicin, and 0.5% (m/v) AlbuMAX II). The parasitemias of these cultures were maintained below 10% with 2.5% hematocrit. P. knowlesi complete RPMI (consisting of RPMI-1640 supplemented with 25 mM HEPES, […] hypoxanthine, 0.26% NaHCO3, 10 mg/L gentamicin, and 1% Albumax II). This culture was maintained with RBCs up to 5% hematocrit. The culture medium was changed daily, and all cultures were maintained under a 90% N2/5% CO2/5% O2 gas mixture at 37 °C. All compounds were purchased from Sigma-Aldrich (Cotia, Brazil).
The antiplasmodial activity of brussonol and derivatives was evaluated against P. falciparum blood parasites 3D7(chloroquine-sensitive). The parasites were synchronized through sterile 5% (m/v) D-sorbitol treatment over 10 min at 37 °C for the enrichment of ring stages. Centrifugation 600× g over 5 min was used to pellet the cultures. The parasitemia was determined by microscope analysis of thin blood smears stained with Giemsa 10% (v/v) after fixation with methanol. The initial parasitemia was calculated for 1000 red blood cells (RBCs), and cultures were diluted to 0.5% parasitemia and 2% hematocrit by the addition of the appropriate volumes of blood and medium. A total of 180 µL aliquots of parasites were distributed into 96-well plates followed by the addition of 20 µL of previously prepared aliquots of ten-fold concentrated compounds, the range of concentrations tested was 10–1.53 µM. Negative and positive control wells, which correspond to non-parasitized erythrocytes and parasite cultures in the absence of compounds, were set in parallel. The DMSO concentration was maintained below 0.05% (v/v) for all compounds except for brussonol, which was 0.5%. The plates were incubated for 72 h at 37 °C in a humidified incubator with a gas mixture of 90% N2, 5% O2, and 5% CO2. Each test was performed in duplicates, and the results were compared with the control cultures. Once completed incubation, the culture medium was removed, and the cells were resuspended in 100 µL PBS (116 mM NaCl, 10 mM NaH2PO4, 3 mM KH2PO4) and lysed with 100 µL lysis buffer (20 mM Tris base, 5 mM EDTA, 0.0008% (v/v) Triton X-100, 0.008% (m/v) saponin, pH 8.0) containing 0.002% (v/v) SYBR Green I. Plates were incubated for 30 min at room temperature, and a SpectraMAX Gemini EM plate reader (Molecular Devices Corp., Sunnyvale, CA) was used to determine the fluorescence corresponding to parasitic density (excitation at 485 nm, emission at 535 nm). The half-maximal inhibitory concentration (IC50^Pf) was determined by non-linear regression analysis of the resulting concentration–response curve using the software GraphPad Prism version 8.0.1 for Windows, GraphPad Software, San Diego, California USA, www.graphpad.com, accessed on 3 March 2022”.

P. falciparum K1 strain = test: Resistance assessment, K1 strain; type: cell-based; conditions: Plasmodium falciparum
P. falciparum Dd2 strain = test: Resistance assessment, Dd2 strain; type: cell-based; conditions: Plasmodium falciparum
[2] = tested on: P. falciparum TM90C6B strain; test: Resistance assessment, TM90C6B strain; type: cell-based; conditions: Plasmodium falciparum
[3] = tested on: P. falciparum 3D7^r_MMV848 strain; test: Resistance assessment, 3D7r-MMV848 strain; type: cell-based; conditions: Plasmodium falciparum
P. falciparum = test: Speed-of-action assay; type: cell-based, Plasmodium falciparum; conditions: for speed of action: IC50 compared after 24, 48 and 72 h of drug exposure; for time of parasite death (morphological development, pyknotic nuclei): highest concentration evaluated, Giemsa smears at 0, 24, 48, 72 h
Procedure: The speed-of-action assay assesses the inhibitory activity of the tested compounds after 24, 48, and 72 h of drug exposure. […] Moreover, to confirm the speed-of-action, the morphological development of the parasite in parallel with the IC50 assessment was verified. The parasites in the negative control wells developed according to the expected timeline (Figure 5a). […] Brussonol caused parasite death within the first 24 h of incubation as observed for artesunate (Figure 5a).
In this method, three 96-well plates were prepared by adding 180 µL of the parasite’s inoculum with 0.5% parasitemia and 2% hematocrit. A serial dilution of the compounds was added to each plate; the starting concentration for brussonol was 6× IC50, while for artesunate and pyrimethamine (fast- and slow-acting controls, respectively) were 10× IC50. In addition, a positive and negative control, which corresponded to parasite cultures with no addition of inhibitor and non-parasitized erythrocytes, respectively, were used for the parasite’s control growth. Each plate was treated for a different period (24, 48, or 72 h), and the first two plates were washed twice with fresh medium to remove the inhibitor, followed by incubation of 48 and 24 h, respectively. […] A statistical analysis using a one-way ANOVA test was done to compare each time point using GraphPad Prism version 8.0.1 for Windows, GraphPad Software, San Diego, California USA, www.graphpad.com, accessed on 1 February 2022. In parallel, the morphological development of the parasite under the compounds’ pressure was assessed by adding the compounds tested at the highest concentration evaluated. Blood smears of each well were made and stained at time points 0, 24, 48, and 72 h.

hemozoin formation = test: Hemozoin formation inhibition assay; type: biochemical; conditions: hemin 25 µM, pH 4.8, 4 h, one experiment in triplicate
Procedure: 2. Hemozoin Formation Inhibition Assay
The hemozoin formation inhibition assay was performed as described previously.12 Briefly, serial 1:3 dilutions, in a 96‐well plate, wit h brussonol were made in a final volume of 20 μL in a concentration 10 times higher than the final concentration of the assay. Secondly, 90 μ L of freshly prepared hemin (at a final concentration of 25 μM) solution in 1M NaOAc/HOAc buffer pH 4.8 were added followed by addition of 90 μ L of 5.4 mg/L Tween 20 solution freshly prepared. The plates were let to stand for 4 hours at 37 °C followed by resuspension with multichannel pippete and read at 415 and 630 nm using a SpectraMAX Plus 384 plate reader (Molecular Devices Corp., Sunnyvale, CA).
Due to the absence of enough compound, this experiment wa s performed only once, but with internal triplicate. Chloroquine (CQ) and pyrimethamine (PYR) were used as positive and negative control of inhibition, respectively.
Inhibition (%) = 100 – 100 x [(Aco ntro l – Asample) / (Acontrol - Amin)] Acontrol is the difference of the absorbance at 415 and 630 nm of the negative control (Hemin +, Tween 20 ‐, Compound ‐); Amin is the difference of the absorbance at 415 and 630 nm of the positive control (Hemin +, Tween 20 +, Compound ‐ ); Asample is the difference of the absorbance at 415 and 630 nm of the sample. The hemozoin formation inhibition assay was performed to evaluate if brussonol act inhibiting hemozoin formation in P. falciparum. CQ, which is a well‐known inhibitor of hemozoin […]
Figure S1. Hemozoin formation inhibition assay. Different concentrations of CQ (black triangles), PYR (red squares) and brussonol (blue circles) were incubated with heme in triplicates. Th e absorbance was recorded at 415/630 nm to determine the hemozoin formation inhibition. […]

## C[C@H]1[C@H](OC(=O)CCC(=O)O)O[C@@H]2O[C@@]3(C)CC[C@H]4[C@H](C)CC[C@@H]1[C@@]24OO3 [artesunate]
[1]
  IC50: 8 ± 4 nM
P. falciparum K1 strain
  IC50: 7 ± 3 nM
P. falciparum Dd2 strain
  IC50: 11 ± 8 nM
[2]
  IC50: 6 ± 2 nM
[3]
  IC50: 13 ± 8 nM
P. falciparum
  speed of action: fast-acting inhibitor
  time of parasite death (morphological development, pyknotic nuclei): ≤ 24 h

## O=C1C(O)=C([C@H]2CC[C@H](c3ccc(Cl)cc3)CC2)C(=O)c2ccccc21 [atovaquone, reference compound]
[1]
  IC50: 0.7 ± 0.3 nM
[2]
  IC50: 3000 ± 1000 nM

## CCc1nc(N)nc(N)c1-c1ccc(Cl)cc1 [pyrimethamine]
[1]
  IC50: 60 ± 10 nM
P. falciparum K1 strain
  IC50: > 10000 nM
P. falciparum Dd2 strain
  IC50: > 10000 nM
P. falciparum
  speed of action: slow-acting inhibitor
  time of parasite death (morphological development, pyknotic nuclei): at the 48 and 72 h time points
Hemozoin formation
  hemozoin formation inhibition (in words): no inhibition profile up to 1.4 mM
